In ChEMBL document CHEMBL1201862, “PubChem BioAssay data set” (2004):
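Step 1: Grow cells in 96-well plates. Step 2: Expose to compound for 48 hours at 5 concentrations. Step 3: Interpolate endpoints linearly; if unreached, use highest concentration. GI50 is the concentration that inhibits growth by half.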 The source made the active and inactive calls. Rule as the data show it: active = GI50 up to about 1.1 µM and inactive = higher.

Experiments:
Assay in all cases: growth of human tumour cells (NCI), 48 h
HCT-15 = tested on: HCT-15
SNB-75 = tested on: SNB-75
NCI-H226 = tested on: NCI-H226
Hs-578T = tested on: Hs-578T
RXF 393 = tested on: RXF 393
Malme-3M = tested on: Malme-3M
CAKI-1 = tested on: CAKI-1
NCI-H460 = tested on: NCI-H460
SK-MEL-28 = tested on: SK-MEL-28
HCT-116 = tested on: HCT-116
UACC-62 = tested on: UACC-62
OVCAR-5 = tested on: OVCAR-5
NCI/ADR-RES = tested on: NCI/ADR-RES
T47D = tested on: T47D
UO-31 = tested on: UO-31
HOP-62 = tested on: HOP-62
UACC-257 = tested on: UACC-257
MOLT-4 = tested on: MOLT-4
COLO 205 = tested on: COLO 205
BT-549 = tested on: BT-549

Structure (SMILES)	GI50 (HCT-15)	GI50 (SNB-75)	GI50 (NCI-H226)	GI50 (Hs-578T)	GI50 (RXF 393)	GI50 (Malme-3M)	GI50 (CAKI-1)	GI50 (NCI-H460)	GI50 (SK-MEL-28)	GI50 (HCT-116)	GI50 (UACC-62)	GI50 (OVCAR-5)	GI50 (NCI/ADR-RES)	GI50 (T47D)	GI50 (UO-31)	GI50 (HOP-62)	GI50 (UACC-257)	GI50 (MOLT-4)	GI50 (COLO 205)	GI50 (BT-549)
O=c1cc(-c2ccc(O)c(O)c2)oc2cc(O[C@H]3O[C@H](CO)[C@@H](O)[C@H](O)[C@H]3O)cc(O)c12	41.5 µM	20.2 µM (inactive)	> 100 µM (inactive)	29.3 µM (inactive)	> 100 µM (inactive)	> 100 µM (inactive)	89.9 µM (inactive)	34.8 µM (inactive)	59.3 µM (inactive)	28.8 µM (inactive)	93.1 µM (inactive)	> 100 µM (inactive)	> 100 µM (inactive)	89.1 µM (inactive)	11.2 µM (inactive)	> 100 µM (inactive)	> 100 µM (inactive)	21.4 µM (inactive)	> 100 µM (inactive)	> 100 µM (inactive)
CC1=C(C(=O)Nc2ccc(Cl)c(C(=O)OC(C)C)c2)SCCO1	69 µM	75.9 µM (inactive)	75.3 µM (inactive)	17.7 µM (inactive)	48.1 µM (inactive)	47.3 µM (inactive)	> 100 µM (inactive)	66.2 µM (inactive)	74.6 µM (inactive)	> 77.4 µM (inactive)	67.6 µM (inactive)	47.9 µM (inactive)	66.2 µM (inactive)	24.2 µM (inactive)	36.9 µM (inactive)	> 91.4 µM (inactive)	62.1 µM (inactive)	40.4 µM (inactive)	51.9 µM (inactive)	> 100 µM (inactive)
Brc1ccccc1/C=C\C1(c2ccccc2)OCCO1	6.38 µM	15 µM (inactive)	18.3 µM (inactive)	7.6 µM (inactive)	13.9 µM (inactive)	15.9 µM (inactive)	6.59 µM (inactive)	14.1 µM (inactive)	18.8 µM (inactive)	4.98 µM (inactive)	14.7 µM (inactive)	15.3 µM (inactive)	10.9 µM (inactive)	15.2 µM (inactive)	7.83 µM (inactive)	14.5 µM (inactive)	16.5 µM (inactive)	0.238 µM (active)	19.6 µM (inactive)	18.3 µM (inactive)
c1ccc2c(c1)Sc1ccccc1N2CC1CN2CCC1CC2 (stereo not given) [MEQUITAZINE]	7.18 µM	1.75 µM (inactive)	14.5 µM (inactive)	8.2 µM (inactive)	2.31 µM (inactive)	1.94 µM (inactive)	8.26 µM (inactive)	3.26 µM (inactive)	2 µM (inactive)	3.52 µM (inactive)	3.13 µM (inactive)	11.7 µM (inactive)	11.1 µM (inactive)	2.63 µM (inactive)	7.06 µM (inactive)	13.4 µM (inactive)	1.88 µM (inactive)	3.42 µM (inactive)	1.69 µM (inactive)	14.5 µM (inactive)
